Measurements from PMC6273913, “New α-Methylene-γ-Butyrolactone Derivatives as Potential Fungicidal Agents: Design, Synthesis and Antifungal Activities” (Molecules, 2016).
Read-outs that look alike come from different tables or passages of the source.

Columns and labels:
C. lagenarium = assay: Spore germination assay, fungicidal activity against C. lagenarium; assay type: cell-based, Colletotrichum lagenarium
Method: (§1) The fungal pathogens C. lagenarium and B. cinerea was provided by the Agricultural Culture Collection of China (Yangling, Shaanxi, China). C. lagenarium was cultured for 2 weeks at 25 ± 1 °C on potato dextrose agar (PDA) while B. cinerea was cultured at 20 °C on the same medium after being retrieved from the storage tube. Plates were flooded with sterile distilled water, and then conidia were scraped with a glass rod. Mycelial debris was removed by filtration. The spores were harvested and suspended in sterile distilled water containing 0.1% (v/v) Tween 20. The concentration of the spore suspension was adjusted to 1.0 × 10^6 spores/mL with sterilized distilled water following.
(§2) The tested samples (10.0 mg) dissolved in acetone (0.1 mL) were diluted with sterile distilled water to prepare 10.0 mL stock solution, which was further diluted to prepare test solutions in which the final concentration of acetone was <1% (v/v). A series of concentrations of tested samples and one control (1% acetone with sterile distilled water) were separately tested for spore germination of C. lagenarium or B. cinerea. The samples were inoculated with spore suspension of C. lagenarium or B. cinerea containing 1.0 × 10^6 spores/mL. Aliquots of 10 μL of prepared spore suspension were placed on separate glass slides in triplicate. Slides containing the spores were incubated in a moisture chamber at 25 °C for 6~8 h. Each slide was then observed under the microscope for spore germination. Spores were considered to have germinated if the length of the germ tube was at least half the length of the spore. Afterward, spore germination was stopped by applying a drop of lactophenol-cotton blue to the inoculation sites on plates. The numbers of generated spores were counted under a microscope (Olympus BX61, Tokyo, Japan), and the percentage of germinated spores was calculated. Chlorothalonil was used as the positive control.

B. cinerea = assay: Spore germination assay, fungicidal activity against B. cinerea; assay type: cell-based, Botrytis cinerea; details: in vitro, n = 3
Method: as §1, §2

[1] = Colletotrichum orbiculare, Table 1, from IC50 in μM, read-out: pIC50, C. lagenarium (converted)
[2] = Colletotrichum orbiculare, Table 2, fungicidal activity against C. lagenarium used for QSAR, read-out: pIC50 (converted)
[3] = Colletotrichum orbiculare, Table 4, experimental, C. lagenarium, read-out: Exp. pIC50 (converted)
[4] = Colletotrichum orbiculare, in vitro, spore germination, n = 3, read-out: IC50, C. lagenarium

## C=C1CC(c2ccccc2OC(=O)c2ccc(Br)cc2)OC1=O (stereo not drawn) [Compound 5e, 4-[2-(4-Bromobenzoyloxy)phenyl]-2-methylenebutyrolactone]
C. lagenarium; [1]
  IC50: 15.3 µM
C. lagenarium; [2]
  IC50: 15.3 µM
C. lagenarium; [3]
  IC50: 15.3 µM
C. lagenarium; [4]
  IC50: 15.3 µM
B. cinerea; Botrytis cinerea
  IC50: 36.1 µM
other
  melting point: 184.7 to 185.2 °C

## C=C1CC(c2ccccc2OC(=O)c2ccc(Cl)cc2)OC1=O (stereo not drawn) [Compound 5b, 4-[2-(4-Chlorobenzoyloxy)phenyl]-2-methylenebutyrolactone]
C. lagenarium; [1]
  IC50: 17.7 µM
C. lagenarium; [2]
  IC50: 17.7 µM
C. lagenarium; [3]
  IC50: 17.7 µM
C. lagenarium; [4]
  IC50: 17.7 µM
B. cinerea; Botrytis cinerea
  IC50: 34.5 µM
other
  melting point: 208.7 to 209.3 °C

## C=C1CC(c2ccccc2OC(=O)c2ccccc2)OC1=O (stereo not drawn) [Compound 5g, 4-(2-Benzoyloxyphenyl)-2-methylenebutyrolactone]
C. lagenarium; [1]
  IC50: 171 µM
C. lagenarium; [2]
  IC50: 171 µM
C. lagenarium; [3]
  IC50: 171 µM
C. lagenarium; [4]
  IC50: 171 µM
B. cinerea; Botrytis cinerea
  IC50: 194 µM
other
  melting point: 166.3 to 167 °C

## C=C1CC(c2cccc(OC(=O)c3cccc(C)c3)c2)OC1=O (stereo not drawn) [Compound 6h, 4-[3-(3-Methylbenzoyloxy)phenyl]-2-methylenebutyrolactone]
C. lagenarium; [1]
  IC50: 126 µM
C. lagenarium; [2]
  IC50: 126 µM
C. lagenarium; [3]
  IC50: 126 µM
C. lagenarium; [4]
  IC50: 126 µM
B. cinerea; Botrytis cinerea
  IC50: 148 µM
other
  melting point: 177.6 to 178.2 °C

## C=C1CC(c2ccc(OC(=O)C=Cc3ccccc3)cc2)OC1=O (stereo not drawn) [Compound 4r, 4-[4-(Cinnamoyloxy)phenyl]-2-methylenebutyrolactone]
C. lagenarium; [1]
  IC50: 44.5 µM
C. lagenarium; [2]
  IC50: 44.5 µM
C. lagenarium; [3]
  IC50: 44.5 µM
C. lagenarium; [4]
  IC50: 44.5 µM
B. cinerea; Botrytis cinerea
  IC50: 56.3 µM

## 4-[2-(Cinnamoyloxy)phenyl]-2-methylenebutyrolactone [Compound 5n]
C. lagenarium; Table 1, from IC50 in μM
  pIC50, C. lagenarium: −1.012
C. lagenarium; Table 2, fungicidal activity against C. lagenarium used for QSAR
  pIC50: −1.0120
C. lagenarium; Table 4, experimental, C. lagenarium
  Exp. pIC50: −1.0120
C. lagenarium; in vitro, spore germination, n = 3, read-out: IC50, C. lagenarium
  IC50: 10.3 µM
B. cinerea
  IC50: 20.6 µM

## C=C1CC(c2ccccc2OC(C)C)OC1=O (stereo not drawn) [Compound 5q, 4-(2-Isopropoxylphenyl)-2-methylenebutyrolactone]
C. lagenarium; [1]
  IC50: 429 µM
C. lagenarium; [2]
  IC50: 429 µM
C. lagenarium; [3]
  IC50: 429 µM
C. lagenarium; [4]
  IC50: 429 µM
B. cinerea; Botrytis cinerea
  IC50: 446 µM

## C=C1CC(c2cccc(OC(=O)c3ccc(Br)cc3)c2)OC1=O (stereo not drawn) [Compound 6e, 4-[3-(4-Bromobenzoyloxy)phenyl]-2-methylenebutyrolactone]
C. lagenarium; [1]
  IC50: 9.71 µM
C. lagenarium; [2]
  IC50: 9.71 µM
C. lagenarium; [3]
  IC50: 9.71 µM
C. lagenarium; [4]
  IC50: 9.7 µM
B. cinerea; Botrytis cinerea
  IC50: 27.2 µM
other
  melting point: 168.6 to 169.4 °C

## C=C1CC(c2ccccc2O)OC1=O (stereo not drawn) [Compound 5, 4-(2-Hydroxyphenyl)-2-methylenebutyrolactone]
C. lagenarium; [1]
  IC50: 239 µM
C. lagenarium; [4]
  IC50: 239 µM
B. cinerea; Botrytis cinerea
  IC50: 280 µM

## C=C1CC(c2ccc(OC(=O)c3ccc(C#N)cc3)cc2)OC1=O (stereo not drawn) [Compound 4h]
C. lagenarium; [1]
  IC50: 65.6 µM
C. lagenarium; [2]
  IC50: 65.6 µM
C. lagenarium; [3]
  IC50: 65.6 µM
C. lagenarium; [4]
  IC50: 65.6 µM
B. cinerea; Botrytis cinerea
  IC50: 77 µM

## C=C1CC(c2cccc(OC(=O)CC)c2)OC1=O (stereo not drawn) [Compound 6m, 4-(3-Propionyloxyphenyl)-2-methylenebutyrolactone]
C. lagenarium; [1]
  IC50: 173 µM
C. lagenarium; [2]
  IC50: 173 µM
C. lagenarium; [3]
  IC50: 173 µM
C. lagenarium; [4]
  IC50: 173 µM
B. cinerea; Botrytis cinerea
  IC50: 203 µM

## C=C1CC(c2ccc(OC(=O)c3cccc(OC)c3)cc2)OC1=O (stereo not drawn) [Compound 4n, 4-[4-(3-Methoxylbenzoyloxy)phenyl]-2-methylenebutyrolactone]
C. lagenarium; [1]
  IC50: 212 µM
C. lagenarium; [2]
  IC50: 212 µM
C. lagenarium; [3]
  IC50: 212 µM
C. lagenarium; [4]
  IC50: 212 µM
B. cinerea; Botrytis cinerea
  IC50: 224 µM
other
  melting point: 185.7 to 186.2 °C

## C=C1CC(c2ccccc2OC(=O)c2ccc(C#N)cc2)OC1=O (stereo not drawn) [Compound 5f]
C. lagenarium; [1]
  IC50: 79.1 µM
C. lagenarium; [2]
  IC50: 79.1 µM
C. lagenarium; [3]
  IC50: 79.1 µM
C. lagenarium; [4]
  IC50: 79.1 µM
B. cinerea; Botrytis cinerea
  IC50: 95 µM

## C=C1CC(c2ccccc2OC(=O)c2ccccc2OC)OC1=O (stereo not drawn) [Compound 5k, 4-[2-(2-Methoxylbenzoyloxy)phenyl]-2-methylenebutyrolactone]
C. lagenarium; [1]
  IC50: 292 µM
C. lagenarium; [2]
  IC50: 292 µM
C. lagenarium; [3]
  IC50: 292 µM
C. lagenarium; [4]
  IC50: 292 µM
B. cinerea; Botrytis cinerea
  IC50: 307 µM
other
  melting point: 177.8 to 178.6 °C
